Data from US9980928B2, “Hydroxy aliphatic substituted phenyl aminoalkyl ether derivatives” (PROUS INSTITUTE FOR BIOMEDICAL RESEARCH, S.A., priority 2012, dated 2018).
Values joined by “and” are separate entries in the source; they are usually repeats but may differ in a detail not shown here. Identical values can stand only once.

How the values were obtained:
p-PLCγ1 = test: Western blot of p-PLCγ1 in mouse brain after i.p. administration; assay type: in vivo, mice; conditions: 30 mg/kg i.p., 1 hour after administration
Protocol: Acute biochemical neuronal changes in neurotrophin and synaptic plasticity signaling after the administration of the compounds to be tested may be studied by Western blot assessment of ERK, Akt, phospholipase C (PLC), Trk-B, […] and CAMK II phosphorylation assays in the hippocampus, striatum and cortex at 1 hour post-administration.
Two groups of animals were used: C57BL control mice and mice treated by i.p. administration of a dose of 30 mg/kg of the compound to be tested diluted in saline solution or control saline (n=6 per group).
Animals were sacrificed by cervical dislocation at the corresponding time and different brain regions were dissected (frontal cortex, striatum, hippocampus, cerebellum) after […] of having administered the compounds. […] The supernatants were collected and the protein concentration was measured using the Dc protein assay kit (Bio-Rad, Hercules, Calif., USA) read in a 96-well plate. […]
After primary antibody incubation, membranes were washed with TBS-T and incubated for 1 hour at room temperature with the appropriate horseradish peroxidase-conjugated secondary antibody (1:2000; Promega, Madison, Wis., USA), and the reaction was finally visualized with the Western Blotting Luminol Reagent (Santa Cruz Biotechnology, Santa Cruz, Calif., USA). Western blot replicates were scanned and quantified using a computer-assisted densitometric analysis.

mice = test: Forced swimming test in mice; assay type: in vivo
Protocol: The antidepressant activity was determined using the forced swimming test described in Porsolt, R.-D. et al. Arch Int Pharmacodyn 1977, 229(2): 327-36.
Reduction in the duration of immobility by 50% or more relative to the control group indicates possible antidepressant activity. Also, one-way ANOVA followed by Dunnett's test was applied to compare the test compound-treated and vehicle control groups. Significance was considered to be P<0.05.

uptake of norepinephrine = uptake of norepinephrine (Homo sapiens, UniProt P23975); test: Uptake inhibition of norepinephrine, cellular assay; assay type: cell-based; conditions: read-out: Norepinephrine reuptake inhibition (IC50 μM)
Protocol: The effect of the compounds of the present invention as inhibitors of the uptake of norepinephrine and serotonin in cellular assays at concentrations that range from […] to 1 nM is determined following the methods described in Galli, A. et al. J Exp Biol 1995, 198(Pt. 10): 2197-212 and Gu, H. et al. J Biol Chem. 1994, 269(10):7124-30.

[1] = target: T1, norepinephrine (NE) transporter (Homo sapiens, UniProt P23975); test: Norepinephrine transporter binding radioligand inhibition ([3H]-nisoxetine); conditions: concentration 5 μM
T1 construct: expressed in transfected cells; host or cells: CHO cells

[2] = target: T2, Human dopamine transporters (Homo sapiens, UniProt Q01959); test: Binding to the dopamine transporter ([125I]-RTI-55); conditions: 10 μM; read-out: inhibitory effect on [125I]-RTI-55 binding
T2 construct: expressed in transfected cells; host or cells: CHO-K1 cells (membranes)
Protocol: Human dopamine transporters expressed in CHO—K1 cells are used in modified Tris-HCl buffer at pH 7.4. […] Non-specific binding is estimated in the presence of […] nomifensine.

C57BL6 mice = test: Maximum tolerated doses, 5 days oral administration; assay type: in vivo; conditions: mouse, doses up to 100 mg/kg/day during 5 days
Text: An alternative evaluation of the toxicity of the compounds of the present invention may be conducted using the method described in Branch, D. R. Exp Toxicol Pathol 2009, 61(2): 133-6 and Emmenegger, U. et al. Neoplasia 2011, 13(1): 40-8. […]

[3] = test system: J20 mouse model and wild-type mice; test: Morris water maze test in old wild-type and J20 mice; assay type: in vivo; conditions: 30 mg/kg i.p.
Text: Familial Alzheimer's disease (AD) is associated with mutations that lead to the production of the β-amyloid 42 (Aβ42) peptide, a constituent of the characteristic amyloid plaques diagnostic of AD. These mutations occur at the proteolytic cleavage sites in the gene encoding the amyloid precursor protein (APP), and in the genes for presenilins 1 and 2 (PSEN1 and PSEN2), enzymes involved in APP cleavage. […] The J20 mouse model is a suitable experimental animal model for testing the activity of drugs on cognitive performance because these mice show robust impairment in spatial learning and spatial reference memory (Karl, T. et al. Behav Brain Res 2012, 228(2): 392-97; Garcia-Barroso, C. et al. Neuropharmacology 2013, 64: 114-23). The effects of Example 2 on spatial memory and learning in the J20 mouse model using the Morris water maze test (Vorhees, Ch. V. and Williams, M. T. Nat Protoc 2006, 1(2): 848-58) were investigated in our laboratory.
The Morris water maze test was applied to 45 old male mice. Twenty wild-type and 25 J20 mice (n=10-11 for each group of treatment/genotype; 10-14 months of age) were treated with vehicle or Example 2 at 30 mg/kg i.p. Percent times in quadrants, escape latencies, distance to goal and other parameters were recorded and compared between groups to assess the compound's activity.

uptake of norepinephrine, sequence (P23975 whole entry): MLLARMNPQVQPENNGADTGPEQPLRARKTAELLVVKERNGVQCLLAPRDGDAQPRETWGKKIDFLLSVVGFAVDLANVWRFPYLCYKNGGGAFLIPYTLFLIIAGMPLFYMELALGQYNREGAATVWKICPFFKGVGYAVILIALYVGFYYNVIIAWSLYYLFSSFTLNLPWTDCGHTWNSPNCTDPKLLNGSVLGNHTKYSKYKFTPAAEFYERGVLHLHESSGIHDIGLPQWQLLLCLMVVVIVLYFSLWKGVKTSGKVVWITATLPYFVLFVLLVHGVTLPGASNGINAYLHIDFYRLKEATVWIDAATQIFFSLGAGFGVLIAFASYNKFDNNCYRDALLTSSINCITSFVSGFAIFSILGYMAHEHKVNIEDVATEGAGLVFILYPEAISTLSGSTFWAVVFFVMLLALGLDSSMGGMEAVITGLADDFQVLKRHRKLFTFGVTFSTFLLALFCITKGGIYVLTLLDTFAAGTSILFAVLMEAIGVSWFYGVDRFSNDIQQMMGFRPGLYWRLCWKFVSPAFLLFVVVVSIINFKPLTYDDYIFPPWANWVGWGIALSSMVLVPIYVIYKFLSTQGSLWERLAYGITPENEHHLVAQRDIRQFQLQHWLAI
T1 sequence (P23975 whole entry): as above
T2 sequence (Q01959 whole entry): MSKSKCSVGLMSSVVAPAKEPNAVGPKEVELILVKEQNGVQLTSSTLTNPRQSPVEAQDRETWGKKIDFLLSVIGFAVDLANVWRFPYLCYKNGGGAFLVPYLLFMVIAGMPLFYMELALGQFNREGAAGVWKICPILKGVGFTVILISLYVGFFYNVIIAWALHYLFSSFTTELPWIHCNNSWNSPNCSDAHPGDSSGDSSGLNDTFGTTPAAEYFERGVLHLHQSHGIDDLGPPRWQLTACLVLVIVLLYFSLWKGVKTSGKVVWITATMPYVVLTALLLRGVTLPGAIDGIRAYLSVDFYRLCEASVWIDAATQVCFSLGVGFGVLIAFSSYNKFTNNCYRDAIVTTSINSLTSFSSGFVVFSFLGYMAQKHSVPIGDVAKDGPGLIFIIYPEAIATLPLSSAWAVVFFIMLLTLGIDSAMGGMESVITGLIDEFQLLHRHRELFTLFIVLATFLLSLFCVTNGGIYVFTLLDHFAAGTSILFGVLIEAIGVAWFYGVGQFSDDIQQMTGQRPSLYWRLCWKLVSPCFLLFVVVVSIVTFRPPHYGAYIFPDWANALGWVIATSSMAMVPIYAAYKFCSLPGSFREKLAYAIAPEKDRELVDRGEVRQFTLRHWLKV

## CNCCC(Oc1ccc(CCO)cc1)c1ccccc1.Cl (single isomer, unassigned) [Example 2, 2-[4-[3-(Methylamino)-1-phenylpropoxy]phenyl]ethanol hydrochloride]
p-PLCγ1
  p-PLCγ1 change: No significant change
mice; 30 mg/kg intraperitoneal, 60 minutes post-dosing
  antidepressant activity (duration of immobility): significant antidepressant activity
mice; 90 mg/kg p.o.
  antidepressant activity (duration of immobility): significant activity
Uptake of norepinephrine
  IC50: 0.0864 µM and 0.086 µM
[1]
  inhibition at 5 µM: 95%
[2]
  inhibition at 10 µM: 88%
C57BL6 mice
  oral toxicity, toxic effect: did not show any toxic effect
[3]; J20 mice
  visuospatial memory and learning: positive effect in some sessions
[3]; old wild type mice
  visuospatial memory and learning: increase in visuospatial memory and learning
